# Experimental data reported in patent US7956190B2, “Benzimidazole amido derivatives as kinase inhibitors” (Hoffmann-La Roche Inc., priority 2007, dated 2011).
# Tested on: HCT 116 cells
# Experiment: CellTiter-Glo Assay in HCT 116 Cells
# Assay type: cell-based
# Details: HCT 116 human colon carcinoma cells, 5 days (120 h) incubation, CellTiter-Glo luminescence, tested in triplicate
# Description: CellTiter-Glo™ Assay in HCT 116 Cells
# The CellTiter-Glo™ Luminescent Cell Viability Assay (Promega) is a homogeneous method of determining the number of viable cells in culture based on quantitation of the ATP present, which signals the presence of metabolically active cells.
# HCT 116 cells (human colon carcinoma, ATCC-No. CCl-247) were cultivated in RPMI 1640 medium with GlutaMAX™ I (Invitrogen, Cat-No. 61870-010), 5% Fetal Calf Serum (FCS, Sigma Cat-No. F4135 (FBS)); 100 Units/ml penicillin/100 μg/ml streptomycin (=Pen/Strep from Invitrogen Cat. No. 15140). For the assay the cells were seeded in 384 well plates, 1000 cells per well, in the same medium. The next day the test compounds were added in various concentrations ranging from 30 μM to 0.0015 μM (10 concentrations, 1:3 diluted). After 5 days the CellTiter-Glo™ assay was done according to the instructions of the manufacturer (CellTiter-Glo™ Luminescent Cell Viability Assay, from Promega). In brief: the cell-plate was equilibrated to room temperature for approximately 30 minutes and than the CellTiter-Glo™ reagent was added. The contents were carefully mixed for 15 minutes to induce cell lysis. After 45 minutes the luminescent signal was measured in Victor 2, (scanning multiwell spectrophotometer, Wallac).
# • Medium: RPMI 1640 with GlutaMAX™ I (Invitrogen, Cat-Nr. 61870), 5% FCS (Sigma Cat.-No. F4135), Pen/Strep (Invitrogen, Cat No. 15140). • HCT116 (ATCC-No. CCl-247): 1000 cells in 60 μl per well of 384 well plate (Greiner 781098, μClear-plate white) • After seeding incubate plates 24 h at 37° C., 5% CO2 2nd. Day: Induction (Treatment with Compounds, 10 Concentrations):
# In order to achieve a final concentration of 30 μM as highest concentration 3.5 μl of 10 mM compound stock solution were added directly to 163 μl media. Then step e) of the dilution procedure described below, was followed.
row,SMILES,IC50
1,"O=C(Nc1cccc2nc(-c3c(NC[C@@H](O)c4ccccc4)cc[nH]c3=O)[nH]c12)c1ccco1 [Example B-19, Furan-2-carboxylic acid {2-[4-((S)-2-hydroxy-2-phenyl-ethylamino)-2-oxo-1,2-dihydro-pyridin-3-yl]-3H-benzoimidazol-4-yl}-amide]",1 to 15 µM
2,"COc1ccc(OC(=O)Nc2cccc3nc(-c4c(NC[C@@H](O)c5ccccc5)cc[nH]c4=O)[nH]c23)cc1 [Example C-1, {2-[4-((S)-2-Hydroxy-2-phenyl-ethylamino)-2-oxo-1,2-dihydro-pyridin-3-yl]-3H-benzoimidazol-4-yl}-carbamic acid 4-methoxy-phenyl ester]",1 to 15 µM
3,"COCCOC(=O)Nc1cccc2nc(-c3c(NC[C@@H](O)c4ccccc4)cc[nH]c3=O)[nH]c12 [Example C-2, {2-[4-((S)-2-Hydroxy-2-phenyl-ethylamino)-2-oxo-1,2-dihydro-pyridin-3-yl]-3H-benzoimidazol-4-yl}-carbamic acid 2-methoxy-ethyl ester]",1 to 15 µM
4,"CC(C)(OC(=O)Nc1cccc2nc(-c3c(NC[C@@H](O)c4ccccc4)cc[nH]c3=O)[nH]c12)C(Cl)(Cl)Cl [Example C-3, {2-[4-((S)-2-Hydroxy-2-phenyl-ethylamino)-2-oxo-1,2-dihydro-pyridin-3-yl]-3H-benzoimidazol-4-yl}-carbamic acid 2,2,2-trichloro-1,1-dimethyl-ethyl ester]",1 to 15 µM
5,"C=CCOC(=O)Nc1cccc2nc(-c3c(NC[C@@H](O)c4ccccc4)cc[nH]c3=O)[nH]c12 [Example C-5, {2-[4-((S)-2-Hydroxy-2-phenyl-ethylamino)-2-oxo-1,2-dihydro-pyridin-3-yl]-3H-benzoimidazol-4-yl}-carbamic acid allyl ester]",2.78 µM
6,"CC(C)OC(=O)Nc1cccc2nc(-c3c(NC[C@@H](O)c4ccccc4)cc[nH]c3=O)[nH]c12 [Example C-6, {2-[4-((S)-2-Hydroxy-2-phenyl-ethylamino)-2-oxo-1,2-dihydro-pyridin-3-yl]-3H-benzoimidazol-4-yl}-carbamic acid isopropyl ester]",1 to 15 µM
7,"COC(=O)Nc1cccc2[nH]c(-c3c(NC[C@@H](O)c4cccc(Cl)c4)cc[nH]c3=O)nc12 [Example C-7, (2-{4-[(S)-2-(3-Chloro-phenyl)-2-hydroxy-ethylamino]-2-oxo-1,2-dihydro-pyridin-3-yl}-1H-benzoimidazol-4-yl)-carbamic acid methylester]",1 to 15 µM

# Results, then the compound that gave them:
row,IC50,SMILES
1,1 to 15 µM,"O=C(Nc1cccc(F)c1)Nc1cccc2nc(-c3c(NC[C@@H](O)c4ccccc4)cc[nH]c3=O)[nH]c12 [Example D-1, 1-(3-Fluoro-phenyl)-3-{2-[4-((S)-2-hydroxy-2-phenyl-ethylamino)-2-oxo-1,2-dihydro-pyridin-3-yl]-3H-benzoimidazol-4-yl}-urea]"
2,1 to 15 µM,"COc1ccc(NC(=O)Nc2cccc3nc(-c4c(NC[C@@H](O)c5ccccc5)cc[nH]c4=O)[nH]c23)cc1 [Example D-2, 1-{2-[4-((S)-2-Hydroxy-2-phenyl-ethylamino)-2-oxo-1,2-dihydro-pyridin-3-yl]-3H-benzoimidazol-4-yl}-3-(4-methoxy-phenyl)-urea]"
3,3.61 µM,"O=C(Nc1ccc(F)cc1)Nc1cccc2nc(-c3c(NC[C@@H](O)c4ccccc4)cc[nH]c3=O)[nH]c12 [Example D-3, 1-(4-Fluoro-phenyl)-3-{2-[4-((S)-2-hydroxy-2-phenyl-ethylamino)-2-oxo-1,2-dihydro-pyridin-3-yl]-3H-benzoimidazol-4-yl}-urea]"
4,1 to 15 µM,"O=C(Nc1ccc(OC(F)(F)F)cc1)Nc1cccc2nc(-c3c(NC[C@@H](O)c4ccccc4)cc[nH]c3=O)[nH]c12 [Example D-4, 1-{2-[4-((S)-2-Hydroxy-2-phenyl-ethylamino)-2-oxo-1,2-dihydro-pyridin-3-yl]-3H-benzoimidazol-4-yl}-3-(4-trifluoromethoxy-phenyl)-urea]"
5,1 to 15 µM,"O=C(Nc1ccccc1)Nc1cccc2nc(-c3c(NC[C@@H](O)c4ccccc4)cc[nH]c3=O)[nH]c12 [Example D-5, 1-{2-[4-((S)-2-Hydroxy-2-phenyl-ethylamino)-2-oxo-1,2-dihydro-pyridin-3-yl]-3H-benzoimidazol-4-yl}-3-phenyl-urea]"
6,1 to 15 µM,"COc1cccc(NC(=O)Nc2cccc3nc(-c4c(NC[C@@H](O)c5ccccc5)cc[nH]c4=O)[nH]c23)c1 [Example D-6, 1-{2-[4-((S)-2-Hydroxy-2-phenyl-ethylamino)-2-oxo-1,2-dihydro-pyridin-3-yl]-3H-benzoimidazol-4-yl}-3-(3-methoxy-phenyl)-urea]"
7,1 to 15 µM,"O=C(NCc1ccccc1)Nc1cccc2nc(-c3c(NC[C@@H](O)c4ccccc4)cc[nH]c3=O)[nH]c12 [Example D-7, 1-Benzyl-3-{2-[4-((S)-2-hydroxy-2-phenyl-ethylamino)-2-oxo-1,2-dihydro-pyridin-3-yl]-3H-benzoimidazol-4-yl}-urea]"
8,1 to 15 µM,"O=C(Nc1ccccc1Cl)Nc1cccc2[nH]c(-c3c(NC[C@@H](O)c4cccc(Cl)c4)cc[nH]c3=O)nc12 [Example D-8, 1-(2-Chloro-phenyl)-3-(2-{4-[(S)-2-(3-chloro-phenyl)-2-hydroxy-ethylamino]-2-oxo-1,2-dihydro-pyridin-3-yl}-1H-benzoimidazol-4-yl)-urea]"
